Experimental data as given in BindingDB's records for patent US20240083908 (Modulus Discovery, 2024).

Target: Poly(ADP-ribose) glycohydrolase (Homo sapiens, UniProt Q86W56)
Assay: PARG Activity Assay
Method: PARG Activity Assay was performed in Streptavidin-coated 96-well plates. […] The substrate solution was added to the 96-well plate at the volume of 200 micro liter per well and incubated for 3 hours at room temperature. After the incubation, the substrate solution was discarded and assay plate was washed 4 times with 220 micro liter of PBS containing 0.1% Tween20 (PBST). […] The diluted enzyme solution was pre-incubated with compounds for 1 hour at room temperature in a 96-well plate and transferred 100 micro liter per well to the poly (ADP-ribose) substrate-coated assay plate. The plate was incubated for 1 hour at 25° C. and then washed 4 times with 220 micro liters of PBST. For the detection of non-digested poly (ADP-ribose) polymer on the plate, mouse anti-poly (ADP-ribose) antibody diluted with 0.2% BSA containing PBS was added 100 micro liters per well and incubated 1 hour at room temperature. Plate was washed 4 times with TBST and 100 micro liter of HRP-labeled anti-mouse Ig antibody was added to the wells. Plate was incubated for 30 minutes at room temperature and then washed 4 times with PBST. For the detection 100 micro liters of TMB substrate solution was added to the wells. After sufficient color development, reaction was stopped by addition of 50 micro liter of 0.2 M […].

Chain of Poly(ADP-ribose) glycohydrolase (Q86W56 whole entry): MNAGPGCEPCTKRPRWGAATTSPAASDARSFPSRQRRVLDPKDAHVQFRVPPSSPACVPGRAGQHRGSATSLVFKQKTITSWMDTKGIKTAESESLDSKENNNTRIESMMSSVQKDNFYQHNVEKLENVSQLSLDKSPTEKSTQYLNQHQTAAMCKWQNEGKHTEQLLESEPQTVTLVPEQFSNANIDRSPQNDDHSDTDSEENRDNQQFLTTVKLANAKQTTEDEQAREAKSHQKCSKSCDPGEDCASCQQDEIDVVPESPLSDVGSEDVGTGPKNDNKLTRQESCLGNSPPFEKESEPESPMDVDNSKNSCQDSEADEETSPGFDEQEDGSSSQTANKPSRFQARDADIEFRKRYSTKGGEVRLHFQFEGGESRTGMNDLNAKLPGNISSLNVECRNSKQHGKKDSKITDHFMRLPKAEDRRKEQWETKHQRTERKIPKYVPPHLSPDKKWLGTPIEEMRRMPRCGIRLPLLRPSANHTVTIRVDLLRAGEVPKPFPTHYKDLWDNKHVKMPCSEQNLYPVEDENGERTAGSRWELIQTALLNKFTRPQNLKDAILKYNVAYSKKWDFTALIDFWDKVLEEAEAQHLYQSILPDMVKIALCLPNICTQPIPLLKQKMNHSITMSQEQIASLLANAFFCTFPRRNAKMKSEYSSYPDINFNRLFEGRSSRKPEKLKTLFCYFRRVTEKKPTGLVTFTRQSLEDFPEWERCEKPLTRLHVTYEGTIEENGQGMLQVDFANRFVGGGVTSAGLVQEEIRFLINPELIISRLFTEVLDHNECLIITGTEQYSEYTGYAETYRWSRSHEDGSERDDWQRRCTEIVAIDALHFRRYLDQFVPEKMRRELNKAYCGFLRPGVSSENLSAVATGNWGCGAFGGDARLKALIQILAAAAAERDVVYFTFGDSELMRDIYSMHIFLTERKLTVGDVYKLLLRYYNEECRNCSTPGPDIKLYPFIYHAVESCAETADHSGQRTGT

| SMILES | IC50 [nM] |
| --- | --- |
| Cn1cc(Cn2c(=O)c3cc(S(=O)(=O)NC4(C)CC4)sc3n(Cc3ccc(OC4CC4)cc3)c2=O)cn1 [US20240083908, Example 68] | 63 |
| CC(=O)N1CCC(n2c(=O)n(Cc3cnn(C)c3)c(=O)c3cc(S(=O)(=O)NC4(C)CC4)sc32)CC1 [US20240083908, Example 92] | 230 |
| Cn1cc(Cn2c(=O)c3cc(S(=O)(=O)NC4(C)CC4)sc3n(Cc3cnn(CCO)c3)c2=O)cn1 [US20240083908, Example 57] | 20 |
| Cn1cc(Cn2c(=O)c3cc(S(=O)(=O)NC4(C)CC4)sc3n(Cc3cnc4c(c3)COC4)c2=O)cn1 [US20240083908, Example 108] | 4 |
| Cc1ncc(Cn2c(=O)c3cc(S(=O)(=O)NC4(C)CC4)sc3n(CCCN(C)C)c2=O)s1 [US20240083908, Example 8] | 630 |
| CC1(NS(=O)(=O)c2cc3c(=O)n(Cc4nc5c(s4)CCCC5)c(=O)n(Cc4ccc5c(c4)COC5)c3s2)CC1 [US20240083908, Example 106] | 990 |
| CNCCN(C)c1ccc(Cn2c(=O)n(Cc3cnn(C)c3)c(=O)c3cc(S(=O)(=O)NC4(C)CC4)sc32)cc1F [US20240083908, Example 77] | 70 |
| Cc1nc(C)c(Cn2c(=O)n(Cc3ccc(Cl)nc3)c(=O)c3cc(S(=O)(=O)NC4(C)CC4)sc32)s1 [US20240083908, Example 105] | 50 |
| COCc1cc2cc(Cn3c(=O)n(Cc4cnn(C)c4)c(=O)c4cc(S(=O)(=O)NC5(C)CC5)sc43)ccc2o1 [US20240083908, Example 63] | 20 |
| COc1cc(Cn2c(=O)n(Cc3cnn(C)c3)c(=O)c3cc(S(=O)(=O)NC4(C)CC4)sc32)ccc1F [US20240083908, Example 121] | 20 |
| Cc1nc(C)c(Cn2c(=O)n(Cc3cnn(CCO)c3)c(=O)c3cc(S(=O)(=O)NC4(C)CC4)sc32)s1 [US20240083908, Example 104b] | 120 |
| CN1CCC(Cn2c(=O)n(Cc3cnn(C)c3)c(=O)c3cc(S(=O)(=O)NC4(C)CC4)sc32)CC1 [US20240083908, Example 98] | 5940 |
| Cn1cc(Cn2c(=O)c3cc(S(=O)(=O)NC4(C)CC4)sc3n(Cc3ccc4cncn4c3)c2=O)cn1 [US20240083908, Example 40] | 4.1 |
| Cc1nc(C)c(Cn2c(=O)n(Cc3cnn(C)c3)c(=O)c3cc(S(=O)(=O)NC4(C)CC4)sc32)s1 [US20240083908, Example 25] | 13 |
| Cn1cc(Cn2c(=O)c3cc(S(=O)(=O)NC4(C)CC4)sc3n(Cc3cc4c(cc3F)COC4)c2=O)cn1 [US20240083908, Example 110] | 17 |
| Cn1cc(Cn2c(=O)c3cc(S(=O)(=O)NC4(C)CC4)sc3n(CC3CCN(CCO)CC3)c2=O)cn1 [US20240083908, Example 99] | 500 |
| Cn1cc(Cn2c(=O)c3cc(S(=O)(=O)NC4(C)CC4)sc3n(-c3ccc(F)cc3)c2=O)cn1 [US20240083908, Example 136] | 860 |
| Cn1cc(Cn2c(=O)c3cc(S(=O)(=O)NC4(C)CC4)sc3n(Cc3ccc4cn[nH]c4c3)c2=O)cn1 [US20240083908, Example 36] | 5.3 |
| CNCCC(=O)N1CCC(n2c(=O)n(Cc3cnn(C)c3)c(=O)c3cc(S(=O)(=O)NC4(C)CC4)sc32)CC1 [US20240083908, Example 95] | 320 |
| COc1ccc(Cn2c(=O)n(Cc3cnn(C)c3)c(=O)c3cc(S(=O)(=O)NC4(C)CC4)sc32)cc1 [US20240083908, Example 50] | 40 |
| Cn1cc(Cn2c(=O)c3cc(S(=O)(=O)NC4(C)CC4)sc3n(Cc3ccc4c(c3)CC(=O)N4)c2=O)cn1 [US20240083908, Example 130] | 3 |
| Cn1cc(Cn2c(=O)c3cc(S(=O)(=O)NC4(C)CC4)sc3n(Cc3ccc4c(c3)COC4)c2=O)cn1 [US20240083908, Example 28] | 10 |
| COc1cc2c(cc1Cn1c(=O)n(Cc3cnn(C)c3)c(=O)c3cc(S(=O)(=O)NC4(C)CC4)sc31)COC2 [US20240083908, Example 111] | 120 |
| Cn1cc(Cn2c(=O)c3cc(S(=O)(=O)NC4(C)CC4)sc3n(Cc3ccc4oc(CO)cc4c3)c2=O)cn1 [US20240083908, Example 64] | 15 |
| Cn1cc(Cn2c(=O)c3cc(S(=O)(=O)NC4(C#N)CC4)sc3n(Cc3ccc4c(c3)COC4)c2=O)cn1 [US20240083908, Example 100] | 42 |
| Cn1cc(Cn2c(=O)c3cc(S(=O)(=O)NC4(C)CC4)sc3n(C3CCNCC3)c2=O)cn1 [US20240083908, Example 91] | 270 |
| Cc1ncc(Cn2c(=O)c3cc(S(=O)(=O)NC4(C)CC4)sc3n(Cc3cc(C(C)C)nn3C)c2=O)s1 [US20240083908, Example 107] | 70 |
| Cc1ncc(Cn2c(=O)[nH]c3sc(S(=O)(=O)NC4(C)CC4)cc3c2=O)s1 [US20240083908, Example 1] | 22900 |
| CN(C)CCN(C)c1ccc(Cn2c(=O)n(Cc3cnn(C)c3)c(=O)c3cc(S(=O)(=O)NC4(C)CC4)sc32)cc1F [US20240083908, Example 78] | 111 |
